Experimental data reported in PubChem BioAssay (NCI).
“And” between values parts separate entries of the source, which are not always exact repeats. Equal entries are not always repeated.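 Tested at 5 concentrations; 48 h exposure; 96-well plates; endpoints linearly interpolated, else capped at highest concentration. The concentration for 50% growth inhibition is given as GI50. Definition used: TGI = concentration required for complete inhibition of growth.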

How the values were obtained:
Assay in all cases: DTP human tumour cell line panel, 48 h
DU-145 prostate = test system: DU-145 prostate
MDA-N = test system: MDA-N
PC-3 prostate = test system: PC-3 prostate
T-47D breast = test system: T-47D breast
HS 578T breast = test system: HS 578T breast
DLD-1 colon = test system: DLD-1 colon
M19-MEL melanoma = test system: M19-MEL melanoma
XF 498 CNS = test system: XF 498 CNS

SMILES	TGI (DU-145 prostate)	TGI (MDA-N) [µM]	TGI (PC-3 prostate)	TGI (T-47D breast)	TGI (HS 578T breast)	GI50 (DU-145 prostate) [µM]	GI50 (PC-3 prostate) [µM]	GI50 (T-47D breast) [µM]	GI50 (HS 578T breast) [µM]	TGI (DLD-1 colon) [µM]	TGI (M19-MEL melanoma) [µM]	GI50 (M19-MEL melanoma) [µM]	GI50 (MDA-N) [µM]	GI50 (DLD-1 colon) [µM]	TGI (XF 498 CNS) [µM]
COC(=O)C1(C)CCc2c(ccc3ccccc23)C1=O (centres undefined)	> 100 µM	76.5	> 100 µM	72.8 µM	> 100 µM	–	–	–	–	–	–	–	–	–	–
c1ccc(COc2ccc(Nc3ncnc4ccc(-c5ccco5)cc34)cc2)cc1	24.6 µM	–	> 23.5 µM	16.8 µM	> 23.5 µM	5.74	8.47	4.09	7.71	–	–	–	–	–	–
Cc1ccc2c(c1)/C(=N\N=C/c1cn(C(C)C)c3ccccc13)C(=O)N2	> 100 µM	–	45.3 µM	> 100 µM	> 100 µM	8.17	0.723	0.953	10.6	–	–	–	–	–	–
Cc1cc(C)c2c(c1C)CN1CN2Cc2c(C)c(C)cc(C)c21	–	–	–	–	–	–	–	–	–	> 100	> 100	–	–	–	–
Nc1ccc(C(=O)O)c2[nH]c3ccccc3c(=O)c12	–	–	–	–	–	–	–	–	–	> 100	> 100	–	–	–	–
CC1OC(OC2C(OC3CCC4(C)C(CCC5(C)C4CC=C4C6CC(C)(C)CCC6(CO)C(O)CC45C)C3(C)C)OC(C(=O)O)C(OC3OC(COC4OC(CO)C(O)C(O)C4O)C(O)C(O)C3O)C2O)C(O)C(O)C1O (centres undefined)	25.1 µM	–	3.92 µM	27.8 µM	34.6 µM	13.4	1.56	12.3	13.1	–	–	–	–	–	–
c1ccc(CNc2nc(Nc3ccc(-c4nc5ccccc5[nH]4)cc3)c3cn[nH]c3n2)cc1	12.5 µM	–	6.36 µM	5.46 µM	8.22 µM	3.33	1.78	1.63	2.45	–	–	–	–	–	–
CC(=O)[CH-]C(=O)c1ccccc1.CC(=O)[CH-]C(=O)c1ccccc1.[O-]Cc1cccs1.[O-]Cc1cccs1.[Ti+4]	–	–	–	–	–	–	–	–	–	–	> 100	82	–	–	–
O=C(O)Cc1ccccc1	> 1000 µM	> 2000	> 2000 µM	> 2000 µM	> 1000 µM and 1780 µM	> 1000	> 1000	> 1000	> 1000	–	–	–	> 1000	–	–
Oc1ccc(-c2nc(-c3ccc(F)cc3)c(-c3ccncc3)[nH]2)cc1	> 100 µM	–	> 100 µM	63 µM	–	15.4	14.1	8.75	–	–	–	–	–	–	–
COc1cc2nc(-c3ccc(Cl)cc3)cc(OCCCN3CCC(O)CC3)c2cc1OC	25.9 µM	–	12.7 µM	12 µM	6.65 µM	2.78	2.02	2.26	1.91	–	–	–	–	–	–
COc1ccccc1NS(=O)(=O)c1cc(C(C)(C)C)ccc1OCCOc1ccc(C(C)(C)C)cc1S(=O)(=O)Nc1ccccc1OC	–	–	–	–	–	–	–	–	–	> 100	> 100	–	–	–	–
CCOC(=O)/C(=C/c1c(-c2ccccc2)[nH]c2ccccc12)C(=O)c1ccc(Cl)cc1	> 100 µM	–	> 100 µM	8.24 µM	57.5 µM	5.87	3.08	2.27	3.73	–	–	–	–	–	–
CC/C(=C(/CC)c1ccc(OP(=O)([O-])[O-])cc1)c1ccc(OP(=O)([O-])[O-])cc1.N.N.N.N.[Pt+4].[Pt+4]	–	–	–	–	–	–	–	–	–	> 100	–	–	–	9.51	–
Cn1cc(-c2ccc3c(c2)ncn3-c2ccc(CC(=O)Nc3cc(C(C)(C)C)on3)cc2)cn1	9.49 µM	–	> 74.7 µM	25.5 µM	1.46 µM	1.37	2.78	0.683	0.187	–	–	–	–	–	–
CC1(C)CC(C2CC(C)(C)CC(C)(C)[C@H]2O)[C@@H](O)C(C)(C)C1 (some centres undefined)	–	–	–	–	–	–	–	–	–	–	> 100	–	–	–	> 100
O=[N+]([O-])c1ccc([I+]c2ccccc2)cc1	25 µM and 6.35 µM	20.9	11 µM and 5.21 µM	26 µM and 5.04 µM	13.5 µM and 5.85 µM	2.25	2.16	1.3	2	–	–	–	–	–	–
CCN1C(=O)N(CC)C2C1NN=c1s/c(=C\c3ccc([N+](=O)[O-])cc3)c(=O)n12 (centres undefined)	> 100 µM	–	> 75.9 µM	> 100 µM	> 72.5 µM	0.424	0.387	0.575	0.328	–	–	–	–	–	–
CCN(CC)c1ccc(/C=C/C2=[N+](C)c3ccccc3C2(C)C)cc1	19 µM	–	31.7 µM	13.8 µM	20.9 µM	0.492	0.167	0.205	0.152	–	–	–	–	–	–
NCCCNCCCNc1nc2ccccc2c2[nH]c3ccccc3c12	1.51 µM	–	2.14 µM	2.69 µM	1.54 µM	0.0756	0.481	0.334	0.132	–	–	–	–	–	–
S=c1nc(/C=C/c2ccc(Cl)c(Cl)c2)[nH][nH]1	> 100 µM	–	> 100 µM	> 100 µM	> 100 µM	> 100	53.4	77.1	> 100	> 100	–	–	–	–	95.5
C=C1CCC2C3(C)COC(c4cccc(Cl)c4)OC3CCC2(C)C1/C=C/C1=CCOC1=O (centres undefined)	> 100 µM	–	> 100 µM	> 100 µM	> 100 µM	> 100	3.77	1.83	7.42	–	–	–	–	–	–
C[C@@H](Oc1cc(-n2cnc3ccc(OCC4CCN(C)CC4)cc32)sc1C(N)=O)c1ccccc1C(F)(F)F	0.246 µM	–	4.08 µM	6.03 µM	5.02 µM	0.0643	0.114	2.69	0.631	–	–	–	–	–	–
COc1cc2c(c(Br)c1N)-c1cc(Br)c(N)cc1C2=O	> 100 µM	–	> 100 µM	> 100 µM	> 100 µM	59.8	> 100	0.307	3.02	–	–	–	–	–	–
O=C(/C=C/c1cccnc1)/C=C/c1cccnc1	6.45 µM	–	3.01 µM	6.87 µM	17.3 µM	2.57	0.558	2.14	3.44	–	–	–	–	–	–
